Measured values reported in patent US20250012803A1, “METHODS FOR ASSESSING AN IMMUNE RESPONSE AND PREDICTING CANCER RECURRENCE AND ASSESSMENT OF CURRENT AND PRIOR CANCER STATUS” (priority 2021, published 2025).
Values joined by “and” are separate entries in the source; they are usually repeats but may differ in a detail not shown here. Equal values may be shown once.

Assays:
Type in all cases: in vivo, human
[1] = tested on: node-positive and high-risk node-negative breast cancer patients with tumors expressing any degree of HER2; experiment: Phase IIb trial (NCT00524277): disease-free survival / breast cancer recurrence
Experimental: Background for Examples 1-5: Delayed type hypersensitivity (DTH) skin tests in the randomized, active-controlled, single-blinded, multicenter Phase IIb trial investigating GLSI-100 (GP2+GM-CSF) administered in the adjuvant setting to node-positive and high-risk node-negative breast cancer patients with tumors expressing any degree of HER2 (immuno-histochemistry [IHC] 1-3+) (NCT00524277) were analyzed. The trial enrolled HLA-A*02 patients randomized to receive GLSI-100 versus GM-CSF alone. The trial's primary objective was to determine if treatment with GLSI-100, a HER2-derived peptide, reduces recurrence rates.
(§1) Methods: Consented patients were randomized and scheduled to receive GLSI-100 (500 microgram (mcg) GP2: 125 mcg GM-CSF) or control (GM-CSF only) via 6 intradermal injections every 3-4 weeks as part of the Primary Immunization Series (PIS) for the first 6 months and 4 booster intradermal injections every 6 months thereafter. […] DTH skin tests were assessed at baseline and after the 6th dose with the orthogonal mean of each skin reaction measured 48-72 hours after injection using the sensitive ballpoint-pen method.
Results: The study enrolled 180 patients across 16 clinical sites with both HER2 3+ positive and low HER2 expressors (1-2+). […] Injection site reactions were common, occurring in almost 100% of patients treated with either GLSI-100 or GM-CSF alone. […]

[2] = tested on: breast cancer patients (DTH immune response to GP2); experiment: Delayed type hypersensitivity (DTH) skin test to GP2
Experimental: as §1
A DTH reaction was used to assess in vivo immune responses in patients (n=150) prior to exposure to study medication and after 6 months of the first dose. The DTH orthogonal mean was measured 48-72 hours after injection using the sensitive ballpoint-pen method. DTH reactions after the PIS were greater compared to baseline DTH reactions.
A DTH reaction was used to assess in vivo immune responses in patients (n=150) prior to exposure to study medication and after 6 months of the first dose. The DTH orthogonal mean was measured 48-72 hours after injection using the sensitive ballpoint-pen method. GP2 DTH response increases in patients after treatment with GLSI-100.
Injection site reactions (ISR) were measured 48-72 hours after injection. Delayed-type hypersensitivity (DTH) to GP2 was performed at baseline and after 6 months of treatment. For the DTH test, 0.5 mL consisting of 100 mcg of GP2 reconstituted in bacteriostatic saline for injection was placed intradermally. The DTH reaction was measured 48-72 hours after injection.
The orthogonal mean of the largest diameter of the injection site was measured 48-72 hours after injection. A DTH reaction was used to assess in vivo immune responses in patients prior to exposure to study medication and after 6 months of the first dose. The DTH orthogonal mean was measured 48-72 hours after DTH placement using the sensitive ballpoint-pen method. DTH reactions increase after the PIS compared to baseline DTH reactions.
GP2 DTH skin tests were placed at baseline and after the 6th dose. After 48-72 hours, the largest perpendicular diameters of induration were measured and the orthogonal mean was calculated. Induration of over 5 mm was considered a positive response. The relationship between prognostic factors such as demographic and disease characteristics and the baseline DTH response were investigated by logistic regression.

breast cancer patients = experiment: Phase IIb trial safety / tolerability; conditions: patients treated with either GLSI-100 or GM-CSF alone
Experimental: as §1
Results: The study enrolled 180 patients across 16 clinical sites with both HER2 3+ positive and low HER2 expressors (1-2+). […] Injection site reactions were common, occurring in almost 100% of patients treated with either GLSI-100 or GM-CSF alone. Previous publications have reported the increase in DTH response reported among patients after treatment with GLSI-100.

[3] = tested on: breast cancer patients (injection site); experiment: Injection site reaction (ISR) measurement, orthogonal mean

| Substance | Time to Recurrence ([1]; individual patients who experienced breast cancer recurrence) | patients reacting to GP2 at baseline (positive DTH, induration of 5 mm or greater) ([2]; baseline, prior to any GP2 treatment, all patients (33/145)) [%] | patients with positive baseline DTH response to GP2 in subgroup with later breast cancer recurrence ([2]; baseline, recurrence subgroup (8/22)) [%] | 6 Month DTH (mm) ([2]; individual recurring patients, after 6 months of treatment) | Baseline DTH (mm) ([2]; individual recurring patients, prior to exposure to study medication) | Kaplan-Meier estimated 5-year disease-free survival (DFS) rate ([1]; HER2 3+ patients followed 6 months or more and disease-free over first 6 months, 5 years follow-up, p=0.0338) [%] | patients with injection site reactions (breast cancer patients) [%] | median orthogonal mean induration of injection site reaction ([3]; after a single dose, p=0.0036) [mm] | average difference in injection site reaction, HER2 3+ vs HER2 1-2+ control patients ([3]; over all 10 doses, HER2 3+ smaller) [mm] | DTH reaction after the Primary Immunization Series (orthogonal mean) ([2]; after 6 months, measured 48-72 hours after injection, p=0.009) [mm] |
| --- | --- | --- | --- | --- | --- | --- | --- | --- | --- | --- |
| Ile Ile Ser Ala Val Val Gly Ile Leu (IISAVVGIL) [GP2] | 28 days and 99 days and 66 days and 820 days and 265 days and 498 days and 507 days and 366 days and 590 days and 141 days and 79 days and 76 days and 1295 days | 22.8 | 36.4 | 24 mm and 20 mm and 16 mm and 15 mm and 3 mm and 0 mm and 25 mm | 9 mm and 8 mm and 7 mm and 0 mm (8×) and 43 mm and 13 mm |  |  |  |  |  |
| granulocyte-macrophage colony-stimulating factor [GM-CSF] |  |  |  |  |  | 89.4 | ~100 | 7.8 | 43.1 | 0.0 |
